Test results published in patent US8202893B2, “Cannabinergic lipid ligands” (University of Connecticut, priority 2004, dated 2012).
Read-outs that look alike come from different tables or passages of the source.

Tests used:
CB2 receptor = target: T1, CB2 receptor (Mus musculus, UniProt P47936); assay: CB2 receptor binding, [3H]CP-55,940 displacement; conditions: mouse spleen membranes
T1 construct: membranes were prepared from frozen mouse spleen; from tissue; host or cells: mouse spleen
Procedure: (§1) The treated membranes were subsequently used in the binding assay described below. Approximately 30 μg of membranes were incubated in silanized 96-well microtiter plate with TME containing 0.1% essentially fatty acid-free bovine serum albumin (BSA), 0.8 nM [^3H] CP-55,940, and various concentrations of test materials in a final volume of 200 μL. The assays were incubated for 1 hour at 30° C. and then immediately filtered using Packard Filtermate 196 harvester and Whatman GF/C filterplates and washed with wash buffer (TME) containing 0.5% BSA. Radioactivity was detected using MicroScint 20 scintillation cocktail added directly to the dried filterplates, and the filterplates were counted using a Packard Instruments Top-Count. Nonspecific binding was assessed using 100 nM CP-55,940. Data collected from three independent experiments performed with duplicate determinations was normalized between 100% and 0% specific binding for [^3H] CP-55,940, determined using buffer and 100 nM CP-55,940. The normalized data was analyzed using a 4-parameter nonlinear logistic equation to yield IC50 values.
For the CB2 receptor binding studies, membranes were prepared from frozen mouse spleen essentially according to the procedure of P. R. Dodd et al, A Rapid Method for Preparing Synaptosomes: Comparison with Alternative Procedures, Brain Res., 226, 107-118 (1981) which is incorporated by reference herein. Silanized centrifuge tubes were used throughout to minimize receptor loss due to adsorption. The CB2 binding assay was conducted in the same manner as for the CB1 binding assay. The binding affinities (Ki) were also expressed in nanomoles (nM).

CB1 cannabinoid receptor = target: T2, CB1 cannabinoid receptor (Rattus norvegicus, UniProt P20272); assay: CB1 receptor binding, [3H]CP-55,940 displacement; conditions: rat forebrain membranes
T2 construct: membranes were prepared from rat forebrain membranes; from tissue; host or cells: rat forebrain
Procedure: Some inventive analogs were tested for CB2 receptor binding affinity and for CB1 receptor affinity (to determine selectivity). […] The lower the Ki value, the higher the binding affinity. […] For the CB1 receptor binding studies, membranes were prepared from rat forebrain membranes according to the procedure of P. R. Dodd et al, A Rapid Method for Preparing Synaptosomes: Comparison with Alternative Procedures, Brain Res., 107-118 (1981). The binding of the novel analogues to the CB1 cannabinoid receptor was assessed as described in W. A. Devane et al, Determination and Characterization of a Cannabinoid Receptor in a Rat Brain, Mol. Pharmacol., 34, 605-613 (1988) and A. Charalambous et al, 5′-azido Δ^8-THC: A Novel Photoaffinity Label for the Cannabinoid Receptor, J. Med. Chem., 35, 3076-3079 (1992) with the following changes. The above articles are incorporated by reference herein.
Membranes, previously frozen at −80° C., were thawed on ice. To the stirred suspension was added three volumes of TME (25 mM Tris-HCl buffer, 5 mM MgCl2 and 1 mM EDTA) at a pH 7.4. The suspension was incubated at 4° C. for 30 min. At the end of the incubation, the membranes were pelleted and washed three times with TME.
as §1

anandamide transporter = assay: [3H]Anandamide transporter competition assay; type: cell-based; conditions: human CCF-STG1 astrocytoma cells, 10 nM [3H]anandamide
Procedure: Human CCF-STG1 astrocytoma cells (American Type Culture collection) were grown in RPMI1640 culture medium containing 2 mM L-glutamine, 4.5 g/L glucose, 10 mM HEPES, and 1.0 mM sodium pyruvate, 10% FBS, cultures at 37° C. with 5% CO2. For standard competition assays, confluent cells grown in 24-well plates were rinsed and preincubated for 10 min at 37° C. in assay buffer (Hank's Balanced Salt Solution containing 0.1% DMSO, 10 mM HEPES) plus test compounds (at their final concentrations of 0.01-100 μM). After having discarded the preincubation media, the cells were incubated for 4 min in 0.2 ml assay buffer containing 10 nM [^3H] anandamide (137.6 Ci/mmol, New England Nuclear) plus test compounds. Reactions were stopped by removing the incubation media and rinsing the cells three times with 0.5 ml of ice-cold HBSS buffer containing 0.1% fatty acid-free Bovine Serum Albumin (sigma). Radioactive material in Triton X-100 cell extracts was measured by liquid scintillation counting. A minimum of three independent experiments conducted in six replicates was used to define the concentration needed to produce half-maximal inhibition (IC50) for each compound. IC50 values were obtained by nonlinear regression fitting of the data, using the PRIZM software package. Data are expressed as mean±SEM.

[1] = target: T3, FAAH (fatty acid amide hydrolase) (Rattus norvegicus, UniProt P97612); assay: FAAH screening: inhibition of anandamide metabolism to arachidonic acid; type: biochemical; conditions: 25 nmoles compound with 25 nmoles AEA, 75 μg enzyme, 250 μL, 15 min
T3 construct: Anandamide Amidase Activity in Rat Brain Microsomes; from tissue; host or cells: rat brain microsomes (by the cited procedure)
T3 sequence (P97612 1-579): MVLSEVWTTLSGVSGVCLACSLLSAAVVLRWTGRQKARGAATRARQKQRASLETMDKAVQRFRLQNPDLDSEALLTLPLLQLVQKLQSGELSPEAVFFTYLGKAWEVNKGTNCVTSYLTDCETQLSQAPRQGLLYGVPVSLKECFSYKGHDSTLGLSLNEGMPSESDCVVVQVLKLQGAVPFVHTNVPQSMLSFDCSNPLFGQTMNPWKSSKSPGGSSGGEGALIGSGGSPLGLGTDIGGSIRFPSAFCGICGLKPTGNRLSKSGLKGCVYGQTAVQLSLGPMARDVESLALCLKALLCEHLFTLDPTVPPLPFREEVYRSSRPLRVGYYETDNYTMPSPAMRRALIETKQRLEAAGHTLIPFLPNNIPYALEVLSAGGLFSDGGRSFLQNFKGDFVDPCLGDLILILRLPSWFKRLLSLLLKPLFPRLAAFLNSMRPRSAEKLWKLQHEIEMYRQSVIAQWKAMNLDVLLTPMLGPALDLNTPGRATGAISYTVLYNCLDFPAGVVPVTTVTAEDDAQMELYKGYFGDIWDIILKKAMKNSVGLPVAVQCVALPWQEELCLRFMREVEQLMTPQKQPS
Procedure: The FAAH (fatty acid amide hydrolase) enzyme preparation was obtained according to the procedure of Lang and Makriyannis et al High Performance Liquid Chromatographic Determination of Anandamide Amidase Activity in Rat Brain Microsomes, Analytical Biochemistry (238): 40-45, 1996.
All compound solutions were made to a concentration of 10 mM in DMSO. Three tests were performed on each compound: hydrolysis, to determine the stability of the compound in assay conditions without the enzyme present; metabolism, to determine the stability of the compound with the enzyme present; and inhibition of anandamide (native substrate) metabolism to arachidonic acid.
Again the reaction mixture was treated in the same manner as described above and the concentrations of AEA and AA were calculated using external standards. Percent inhibition was calculated using the following equation: % Inhib.=(AA15-AA0)i/(AA15-AA0)s where (AA15-AA0)c is the amount of arachidonic acid formed over 15 minutes from AEA with the inhibitor present and (AA15-AA0)s is the amount of arachidonic acid formed over 15 minutes from AEA when the inhibitor is not present. […] The reaction mixtures were treated as described above and the amount of AA formed was calculated. The software package GraphPad Prism was utilized to calculate IC50 and Ki. HPLC Conditions:
Chromatographic separation was achieved using an Ultrasphere ODS Pre-column (4.6×45 mm) from Beckman. Hardware consisted of a Waters Millennium HPLC system with a 20 μL injection loop. The mobile phase consisted of 8.5% o-phosphoric acid:acetonitrile (3:7), run isocratically at a rate of 1 mL/min and detection at 204 nm. The total run time was 8 minutes with AEA eluting at 2.2 minutes and AA at 6.0 minutes.

[2] = with PMSF (second value of cell), read-out: Ki CB1 (nM) (o/w PMSFQ)
[3] = without PMSF (first value of cell), read-out: Ki CB1 (nM) (o/w PMSFQ)
[4] = with PMSF (second value of cell), read-out: Ki CB1 (nM) (o/w PMSF)
[5] = without PMSF (first value of cell), read-out: Ki CB1 (nM) (o/w PMSF)

T1 sequence (P47936 whole entry): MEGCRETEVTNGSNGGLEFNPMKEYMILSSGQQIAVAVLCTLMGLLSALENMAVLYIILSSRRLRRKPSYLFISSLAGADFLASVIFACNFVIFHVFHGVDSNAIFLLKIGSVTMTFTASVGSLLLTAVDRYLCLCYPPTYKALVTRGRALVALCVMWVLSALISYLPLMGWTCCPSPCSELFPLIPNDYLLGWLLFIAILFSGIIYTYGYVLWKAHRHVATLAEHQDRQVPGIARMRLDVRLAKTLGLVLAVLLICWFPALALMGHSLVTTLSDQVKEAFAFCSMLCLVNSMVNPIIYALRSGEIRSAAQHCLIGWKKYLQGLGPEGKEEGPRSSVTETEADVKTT
T2 sequence (P20272 whole entry): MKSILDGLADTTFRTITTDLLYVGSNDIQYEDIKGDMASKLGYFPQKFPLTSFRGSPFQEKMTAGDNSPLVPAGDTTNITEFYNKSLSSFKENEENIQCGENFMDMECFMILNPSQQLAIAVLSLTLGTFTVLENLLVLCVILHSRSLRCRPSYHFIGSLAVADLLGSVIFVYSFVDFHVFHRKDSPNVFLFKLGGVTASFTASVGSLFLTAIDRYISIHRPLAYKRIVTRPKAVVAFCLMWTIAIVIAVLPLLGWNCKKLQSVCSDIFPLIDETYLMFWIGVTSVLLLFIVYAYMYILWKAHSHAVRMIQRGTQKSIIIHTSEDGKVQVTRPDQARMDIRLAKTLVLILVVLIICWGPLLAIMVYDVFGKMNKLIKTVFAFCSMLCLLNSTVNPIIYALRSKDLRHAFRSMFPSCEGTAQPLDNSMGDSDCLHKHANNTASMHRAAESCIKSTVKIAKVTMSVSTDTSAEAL

Compound | Ki (CB2 receptor) | Ki (CB1 cannabinoid receptor; [2]) | Ki (CB1 cannabinoid receptor; [3]) | IC50 (anandamide transporter; read-out: IC50 AT inhibition) | FAAH % Inhibition [1] | Ki (CB1 cannabinoid receptor; [4]) | Ki (CB1 cannabinoid receptor; [5]) | IC50 (anandamide transporter; read-out: IC50 (AT inhib.))
[N-]=[N+]=NCCCCC/C=C\C/C=C\C/C=C\C/C=C\CCCC(=O)NC1CC1 [Compound A5] | 57.6 nM | 0.9 nM | 26.7 nM | 2900 nM | 7% | – | – | –
[N-]=[N+]=NCCCC/C=C\C/C=C\C/C=C\C/C=C\CCCC(=O)NC1=NCCS1 [Compound A8] | 513 nM | 106 nM | 1300 nM | 2300 nM | 49% | – | – | –
[N-]=[N+]=NCCCC/C=C\C/C=C\C/C=C\C/C=C\CCCC(=O)NC1CCC1 [Compound A9] | 72.4 nM | 31.9 nM | 112 nM | – | 58% | – | – | –
CC(C)NC(=O)CCC/C=C\C/C=C\C/C=C\C/C=C\CCCCN=C=S [Compound A10] | 52.7 nM | 7.7 nM | 95.2 nM | – | 84% | – | – | –
O=C(CCC/C=C\C/C=C\C/C=C\C/C=C\CCCCN=C=S)NCC1CC1 [Compound A11] | 70.9 nM | 34.2 nM | 91.7 nM | – | 90% | – | – | –
[N-]=[N+]=NCCCCC/C=C\C/C=C\C/C=C\C/C=C\CCCC(=O)Nc1ccc(O)cc1 [Compound A13] | 335 nM | 531 nM | 3830 nM | 700 nM | 33% | – | – | –
[N-]=[N+]=NCCCCC/C=C\C/C=C\C/C=C\C/C=C\CCCC(=O)NC1=NCCS1 [Compound A14] | 243 nM | 144 nM | 428 nM | 1200 nM | 48% | – | – | –
COc1cc(CNC(=O)CCC/C=C\C/C=C\C/C=C\C/C=C\CCCCCN=[N+]=[N-])ccc1O [Compound A15] | 74.7 nM | 13.2 nM | 48.8 nM | – | 38% | – | – | –
O=C(CCC/C=C\C/C=C\C/C=C\C/C=C\CCCCCO)NC1CC1 [Compound A17] | 38.7 nM | 3.9 nM | 209 nM | 35300 nM | 61% | – | – | –
CCCCCN(C)C/C=C\C/C=C\C/C=C\C/C=C\CCCC(=O)NC1CC1 [Compound A21] | 238 nM | 66.3 nM | 76.5 nM | – | – | – | – | –
CCCCCN(C)C/C=C\C/C=C\C/C=C\C/C=C\CCCCNC(=O)COC [Compound A22] | 224 nM | – | – | – | – | – | – | –
CCCCCN(C)C/C=C\C/C=C\C/C=C\C/C=C\CCCCNC(C)=O [Compound A23] | 1760 nM | 627 nM | 813 nM | – | – | – | – | –
CCCCCN(C)C/C=C\C/C=C\C/C=C\C/C=C\CCCCNC(=O)COC [Compound A24] | 435 nM | – | – | – | – | – | – | –
CCCCCN(C)C/C=C\C/C=C\C/C=C\C/C=C\CCCCNC(C)=O [Compound A25] | 3650 nM | 1030 nM | 1500 nM | – | – | – | – | –
C[C@H](CO)NC(=O)CCC/C=C\C/C=C\C/C=C\C/C=C\C12CC3CC(CC(C3)C1)C2 [Compound A28] | 3460 nM | – | – | – | – | – | – | –
C[C@H](CO)NC(=O)CCC/C=C\C/C=C\C/C=C\C/C=C\CCC12CC3CC(CC(C3)C1)C2 [Compound A29] | 5670 nM | – | – | – | – | – | – | –
CCCCC/C=C\C/C=C\C/C=C\C/C=C\CCCCOC(=O)NC1CC1 [Compound B6] | 983 nM | – | – | – | – | 75.1 nM | 181 nM | 15500 nM
CCCCC/C=C\C/C=C\C/C=C\C/C=C\CCCCOC(=O)NC1CCC1 [Compound B7] | 5310 nM | – | – | – | – | 995 nM | 1410 nM | 15500 nM
CCCCC/C=C\C/C=C\C/C=C\C/C=C\CCCCOC(=O)NC1CCCCC1 [Compound B8] | 781 nM | – | – | – | – | 1470 nM | 3960 nM | 33000 nM
CCCCC/C=C\C/C=C\C/C=C\C/C=C\CCCCNC(=O)OC[C@H](C)O [Compound B16] | 289 nM | – | – | – | – | 686 nM | 1200 nM | 3290 nM
